According to patent publication US20040067932A1 (priority 2002, published 2004):
Values after ≈ are worked out from the molar mass of the structure shown. Structures can show the parent of a compound that is named as a salt. Where two headings read alike, the source gives them in different places.

Tests used:
A375 cells = assay: Flow cytometry (PI) G2/M accumulation and sub-G1 apoptosis, A375; format: cell-based, human; conditions: Homo sapiens, A-375, read-out: SEC50 (dose inducing 50% of the enhancing activity to vindesine)
Experimental: A375 and NCTC2544 adherent cells were trypsinized, mixed with floating cells, washed with PBS and permeabilised in 70% (vol/vol) ethanol/PBS solution at 4° C. for at least 24 hours. Jurkat, HeL023 and PBMC cells were centrifuged for 10 minutes at 1000×g. The cell pellet was then resuspended and permeabilised in 70% (vol/vol) ethanol/PBS solution at 4° C. for at least 24 hours. The cells were washed with PBS and the DNA was stained with a PBS solution, containing 20 μg/ml of propidium iodide and 100 μg/ml of RNAse, at room temperature for 30 minutes. Cells were analysed by FACScan (Becton-Dickinson) and the content of DNA was evaluated by the Cell-LISYS program (Becton-Dickinson). Cell distribution among cell cycle phases and apoptotic cells was evaluated as previously described (Secchiero et al., 2001). Briefly, the cell cycle distribution is shown as the percentage of cells containing 2n (G1 phase), 4n (G2 and M phases), 4n>x>2n. DNA amount (S phase) judged by propidium iodide staining. The apoptotic population is the percentage of cells with DNA content lower than 2n.
Cell proliferation and apoptosis are quantified by flow cytometer analysis after propidium-iodide (PI) DNA staining.

[1] = target: T1, P-gp drug efflux activity in HeL023 cells (Homo sapiens, UniProt P08183); assay: Rhodamine 123 efflux assay, HeL023 cells; format: cell-based; conditions: for inhibition of P-gp activity (in words): Rh123 efflux, concentrations of Table 11 (MRE3008F20 10 μM); for % of Rh123 negative cells: cells expressing P-gp activity
T1 construct: nearly all (100±1%) the cells expressing high level of functional P-gp; endogenous in cells; host or cells: HeL023 human erythroleukemia cells
T1 sequence (P08183 whole entry): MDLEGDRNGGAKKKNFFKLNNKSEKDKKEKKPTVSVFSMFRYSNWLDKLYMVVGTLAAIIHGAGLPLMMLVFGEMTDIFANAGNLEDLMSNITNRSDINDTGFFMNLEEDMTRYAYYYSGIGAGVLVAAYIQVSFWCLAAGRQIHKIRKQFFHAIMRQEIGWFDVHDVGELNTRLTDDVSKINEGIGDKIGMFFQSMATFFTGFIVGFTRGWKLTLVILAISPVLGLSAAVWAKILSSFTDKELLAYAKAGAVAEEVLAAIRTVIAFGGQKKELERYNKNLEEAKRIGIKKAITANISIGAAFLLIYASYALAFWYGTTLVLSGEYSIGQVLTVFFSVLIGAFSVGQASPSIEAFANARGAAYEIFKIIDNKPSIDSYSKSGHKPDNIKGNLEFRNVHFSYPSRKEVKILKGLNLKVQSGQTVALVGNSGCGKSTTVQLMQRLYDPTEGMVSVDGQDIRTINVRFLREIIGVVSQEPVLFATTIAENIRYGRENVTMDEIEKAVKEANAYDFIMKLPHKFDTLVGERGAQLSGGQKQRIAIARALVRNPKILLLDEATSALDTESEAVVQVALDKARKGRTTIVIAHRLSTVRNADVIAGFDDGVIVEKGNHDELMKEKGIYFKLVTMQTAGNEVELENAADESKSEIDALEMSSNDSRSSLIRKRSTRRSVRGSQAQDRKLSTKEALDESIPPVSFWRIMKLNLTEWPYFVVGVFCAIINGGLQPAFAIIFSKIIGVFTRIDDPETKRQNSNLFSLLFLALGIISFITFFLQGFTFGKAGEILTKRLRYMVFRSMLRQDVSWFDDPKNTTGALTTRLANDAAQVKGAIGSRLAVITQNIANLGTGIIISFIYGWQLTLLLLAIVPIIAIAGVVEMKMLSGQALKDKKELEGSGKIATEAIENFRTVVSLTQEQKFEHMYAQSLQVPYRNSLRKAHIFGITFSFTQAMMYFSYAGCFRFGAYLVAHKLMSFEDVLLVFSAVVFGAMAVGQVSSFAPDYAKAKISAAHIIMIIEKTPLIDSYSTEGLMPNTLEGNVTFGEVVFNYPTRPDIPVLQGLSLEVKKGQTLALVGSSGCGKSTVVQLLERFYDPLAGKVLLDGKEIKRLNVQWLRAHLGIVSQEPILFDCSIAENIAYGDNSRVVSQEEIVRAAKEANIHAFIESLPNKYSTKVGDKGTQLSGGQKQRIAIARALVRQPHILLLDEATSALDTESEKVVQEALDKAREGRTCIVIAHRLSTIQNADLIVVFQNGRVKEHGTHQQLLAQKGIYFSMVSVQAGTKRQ
Experimental: 5×10^5 cells from each subline were loaded with 50 ng/ml of rhodamine 123 for 30 minutes at 37° C. in medium. The cells were washed and resuspended in dye-staining agent free medium for 3 hours at 37° C. to allow rhodamine 123 efflux. The cells were then washed twice and the fluorescence of intracellular rhodamine 123 were analysed with Flow cytometer (residual fluorescence FRES). The fluorescence was compared with loaded cells maintained at 4° C. to prevent drug export (maximal fluorescence FMAX). […] Cells from each subline that were not being exposed to rhodamine 123 were used as negative controls.
Rhodamine 123 (Rh123) retention, a P-gp functional assay, was studied in all cell lines. This assay was performed by incubating cells with Rh123 and determining Rh123 accumulation by measuring its fluorescence. The maximum load of Rh123 (FMAX) was quantified at the end of treatment harvesting the cells and storing them at 4° C. to prevent any active Rh123 efflux . The P-gp drug efflux was allowed incubating Rh123-loaded cells in fresh new medium Rh123-free for 3 hours at 37° C. After this incubation, residual fluorescence (FRES) was measured and compared to FMAX.

[2] = target: T2, human A3 adenosine receptor (Homo sapiens, UniProt P0DMS8); assay: biochemical
T2 sequence (P0DMS8 1-318): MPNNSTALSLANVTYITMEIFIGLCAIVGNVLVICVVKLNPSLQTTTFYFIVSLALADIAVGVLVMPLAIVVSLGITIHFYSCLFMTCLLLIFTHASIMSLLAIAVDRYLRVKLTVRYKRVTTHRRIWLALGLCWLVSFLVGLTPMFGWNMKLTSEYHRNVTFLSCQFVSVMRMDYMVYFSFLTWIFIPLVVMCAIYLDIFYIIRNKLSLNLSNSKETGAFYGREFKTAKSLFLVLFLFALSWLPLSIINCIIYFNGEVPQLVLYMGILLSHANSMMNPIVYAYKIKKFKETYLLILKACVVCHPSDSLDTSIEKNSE

A375 melanoma cells = assay: Colony formation assay of A375 cells; format: cell-based, human; conditions: 7 days
Experimental: FIG. 2 illustrates colony formation assay of A375 cells. Cells were treated with different drugs and colonies were counted after 7 days. The values represent the mean ±SEM of four independent experiments. D=DMSO (control); T=paclitaxel, 0.75 ng/ml; M=MRE 3008F20, 10 μM; C=CI-IB-MECA, 10 μM; TM=paclitaxel plus MRE 3008F20; TC=paclitaxel plus CI-IB-MECA treated cells. *P<0.01 TM versus T. Analysis was by ANOVA followed by Dunnett's test.;
Control plates received the same volume of DMSO alone. After 7 days of growth at 37° C. in humidified atmosphere containing 5% CO2, the cells were fixed with absolute methanol for 5′ and stained with 1/10 Giemsa/phosphate-buffered saline (PBS) staining solution for 10 minutes. Staining solution was removed and colonies of greater than 30 cells were scored as survivors. For each treatment, six individual wells were scored.
Colony formation assay experiments were performed on A375 melanoma cells treated with increasing concentration of paclitaxel (0.25-75 ng/ml). A3 stimulation is achieved with the selective agonist CI-IB-MECA while A3 blockade is obtained with the selective antagonist MRE 3008F20. […] (FIG. 2)

[3] = tested on: human melanoma A375 cell line; assay: MTT growth inhibitory assay, A375; format: cell-based
[4] = tested on: human lung carcinoma SKMES; assay: MTT growth inhibitory assay, SKMES; format: cell-based
[5] = tested on: human colon carcinoma HT29 cell line; assay: MTT growth inhibitory assay, HT29; format: cell-based; conditions: for IC50: HT-29; for fold HT29 more refractory than A375: ratio of IC50 HT29 vs A375
[6] = tested on: human pancreatic cancer Panc-1; assay: MTT growth inhibitory assay, Panc-1; format: cell-based; conditions: for IC50: Human Pancreatic Cancer Panc-1, read-out: IC50 growth inhibition, agent used separately
[7] = Homo sapiens, A-375, Human Melanoma A375, read-out: IC50 growth inhibition, agent used separately
[8] = Human Lung Carcinoma SKMES, read-out: IC50 growth inhibition, agent used separately
[9] = Human Colon Carcinoma HT29, read-out: IC50 growth inhibition, agent used separately
[10] = Homo sapiens, A-375, A375 cell line, read-out: IC50 value
[11] = Homo sapiens, HT29 cell line, read-out: IC50 value

## Nc1nc2ccc(Cl)cc2c2nc(-c3ccco3)nn12 [CGS 15943, 5-amino-9-chloro-2-(furyl) 1,2,4-triazolo[1,5-c]quinazoline, reference compound]
A375 cells
  EC50: 12600 ± 1410 nM
[1]
  inhibition of P-gp activity (in words): much lower effect on P-gp activity
[2]
  Ki: 118 ± 12 nM

## CNC(=O)[C@H]1O[C@@H](n2cnc3c(NCc4cccc(I)c4)nc(Cl)nc32)[C@H](O)[C@@H]1O [CI-IB-MECA]
A375 melanoma cells; 10 μM alone
  colony formation, % of DMSO control: 130%
A375 melanoma cells; 10 μM plus paclitaxel 0.75 ng/ml
  colony formation, % of control, combined with paclitaxel: 85%

## CN(C)c1ccc(NC(=O)Nc2nc3nn(C)cc3c3nc(-c4ccco4)nn23)cc1 [IL-11, N-1-(4-dimethylamino-phenyl)-N′-5-[8-methyl-2-(2-furyl)-pyrazolo[4,3-e]1,2,4-triazolo[1,5-c]pyrimidine]-urea]
[3]; A375, A3 antagonist 0.5 μg/ml
  Enhancement Factor for docetaxel: 5.3
  Enhancement Factor for paclitaxel: 3.1
[3]; A375, A3 antagonist 5 μg/ml
  Enhancement Factor for docetaxel: 6.5
[3]; A375, A3 antagonist 5 μg/ml, paclitaxel 0.0001-0.05 μg/ml
  Enhancement Factor for paclitaxel: 9.6
[3]; A375, A3 antagonist 5 μg/ml, paclitaxel 0.0002-0.1 μg/ml
  Enhancement Factor for paclitaxel: 11.5
[3]; [7]
  IC50: 49.3 ± 40.7 µg/mL (≈ 118 µM)
[3]; Homo sapiens, A-375, A375, 5 μg/ml, read-out: growth inhibition in the presence of A3 antagonist alone
  inhibition at 5 µg/mL: 30 to 45%
[4]; [8]
  IC50: 36.3 ± 31.5 µg/mL (≈ 87 µM)
[4]; SKMES, A3 antagonist 0.5 μg/ml
  Enhancement Factor for docetaxel: 1.9
  Enhancement Factor for irinotecan HCL: 1.9
  Enhancement Factor for paclitaxel: 4.2
  Enhancement Factor for vinblastine: 1.6
[5]; HT29, A3 antagonist 0.5 μg/ml
  Enhancement Factor for docetaxel: 6.4
  Enhancement Factor for doxorubicin: 1.2
  Enhancement Factor for irinotecan HCl: 1.1
  Enhancement Factor for paclitaxel: 2.5
[5]; [9]
  IC50: 56.5 ± 8.3 µg/mL (≈ 135 µM)
[6]
  IC50: 8 ± 5.7 µg/mL (≈ 19.2 µM)
[6]; Panc-1, A3 antagonist 0.5 μg/ml
  Enhancement Factor for docetaxel: 1.4

## Cc1ccc(NC(=O)Nc2nc3nn(C)cc3c3nc(-c4ccco4)nn23)cc1 [MRE 3046F20, 5-N-(4-methylphenyl-carbamoyl)amino-8-methyl-2 (2-furyl)-pyrazolo-[4,3e]-1,2,4-triazolo[1,5-c]pyrimidine]
A375 cells
  EC50: 570 ± 60 nM
[1]
  inhibition of P-gp activity (in words): strong inhibitors of P-gp activity
[2]
  Ki: 3 ± 0.3 nM

## CCCn1cc2c(nc(NC(=O)Nc3ccccc3)n3nc(-c4ccco4)nc23)n1 [MRE 3055F20, 5-N-(4-phenylcarbamoyl)amino-8-propyl-2 (2furyl)-pyrazolo[4,3e]-1,2,4triazolo-[1,5c]pyrimidine]
A375 cells
  EC50: 310 ± 30 nM
[1]
  inhibition of P-gp activity (in words): strong inhibitors of P-gp activity
[2]
  Ki: 1.4 ± 0.2 nM

## Nc1nc(NCCc2ccc(O)cc2)nc2nc(-c3ccco3)nn12 [ZM 241385, 4-(2-[7-amino-2-(2-furyl)-[1,2,4]triazolo[2,3-a][1,3,5]triazin-5-ylamino]ethyl)phenol, reference compound]
A375 cells
  EC50: 25000 ± 2230 nM
[1]
  inhibition of P-gp activity (in words): much lower effect on P-gp activity

## COc1cccc2c1C(=O)c1c(O)c3c(c(O)c1C2=O)C[C@@](O)(C(=O)CO)C[C@@H]3O[C@H]1C[C@H](N)[C@H](O)[C@H](C)O1 [doxorubicin, reference compound]
[3]; [10]
  IC50: 0.0064 µg/mL (≈ 0.0118 µM)
[5]; Homo sapiens, HT29, doxorubicin 0.0002-0.1 μg/ml, alone, read-out: IC50 of doxorubicin, A3 antagonist none
  IC50: 0.46 µg/mL (≈ 0.846 µM)
[5]; [11]
  IC50: 0.211 µg/mL (≈ 0.388 µM)
[5]
  fold HT29 more refractory than A375: approximately 30 fold

## CCCn1cc2c(nc(NC(=O)Nc3ccccc3)n3nc(-c4ccco4)nc23)n1 [drawing 9]
[1]; 10 μM
  % of Rh123 negative cells: 0.8 ± 0.2%

## CCCn1cc2c(nc(NC(=O)Nc3ccccc3)n3nc(-c4ccco4)nc23)n1 [drawing 10]
[1]; 10 μM
  % of Rh123 negative cells: 1.0 ± 0.2%

## Cc1ccc(NC(=O)Nc2nc3nn(C)cc3c3nc(-c4ccco4)nn23)cc1 [drawing 11]
[1]; 10 μM
  % of Rh123 negative cells: 22.0 ± 1.0%

## Nc1nc2ccc(Cl)cc2c2nc(-c3ccco3)nn12 [drawing 12, reference compound]
[1]; 70 μM
  % of Rh123 negative cells: 87.1 ± 1.0%

## Nc1nc(NCCc2ccc(O)cc2)nc2nc(-c3ccco3)nn12 [drawing 13, reference compound]
[1]; 70 μM
  % of Rh123 negative cells: 93.0 ± 1.1%

## CCc1c2c(nc3ccc(OC(=O)N4CCC(N5CCCCC5)CC4)cc13)-c1cc3c(c(=O)n1C2)COC(=O)[C@]3(O)CC [irinotecan HCL, reference compound]
[3]; [7]
  IC50: 0.88 ± 0.19 µg/mL
[4]; Homo sapiens, SKMES, irinotecan HCL 0.04-20 μg/ml, alone, read-out: IC50 of irinotecan HCL, A3 antagonist none
  IC50: 1.17 µg/mL
[4]; [8]
  IC50: 1.23 ± 0.36 µg/mL
[5]; [9]
  IC50: 1.05 ± 0.07 µg/mL
[5]; Homo sapiens, HT29, irinotecan HCl 0.04-20 μg/ml, alone, read-out: IC50 of irinotecan HCl, A3 antagonist none
  IC50: 0.96 µg/mL
[6]
  IC50: 1.12 ± 0.29 µg/mL

## O=C1c2c(O)ccc(O)c2C(=O)c2c(NCCNCCO)ccc(NCCNCCO)c21 [mitoxantrone, reference compound]
[3]; [10]
  IC50: 0.0032 µg/mL (≈ 0.0072 µM)
[5]; [11]
  IC50: 0.1 µg/mL (≈ 0.225 µM)
[5]
  fold HT29 more refractory than A375: approximately 30 fold

## CC[C@]1(O)C[C@@H]2CN(CCc3c([nH]c4ccccc34)[C@@](C(=O)OC)(c3cc4c(cc3OC)N(C)[C@H]3[C@@](O)(C(=O)OC)[C@H](OC(C)=O)[C@]5(CC)C=CCN6CC[C@]43[C@@H]65)C2)C1 [vinblastine, reference compound]
[3]; [7]
  IC50: 0.0016 µg/mL (≈ 0.00197 µM)
[4]; Homo sapiens, SKMES, vinblastine 0.00001-0.005 μg/ml, alone, read-out: IC50 of vinblastine, A3 antagonist none
  IC50: 0.0015 µg/mL (≈ 0.00185 µM)
[4]; [8]
  IC50: 0.0019 ± 0.0009 µg/mL (≈ 0.00234 µM)
[5]; [9]
  IC50: 0.0019 ± 0.0004 µg/mL (≈ 0.00234 µM)
[6]
  IC50: 0.0018 ± 0.0008 µg/mL (≈ 0.00222 µM)
